What was measured:
[1] = target: Lysine decarboxylase (EC 4.1.1.18) (Escherichia coli, UniProt P0A9H3); conditions: E. coli enzyme; cited from earlier work
E. coli [2] = format: cell-based, Escherichia coli
Experimental: FIG. 18, panels A and B, show the growth in various concentrations of 6-ACA with and without glycine betaine. Panel A. OD600 measurements of medium inoculated with midlog cultures of E. coli with various concentrations of 6-ACA with (right bars) and without (left bars) 2 mM glycine betaine. Panel B. Photograph showing the growth of same cultures in the anaerobic bottles.
At high concentrations (>65 g/L) the osmolarity of 6-ACA is ˜0.5 M which may cause osmotic stress. To determine osmotic stress as the basis for 6-ACA growth inhibition, cultures were grown in various concentrations of 6-ACA with and without the osmoprotectant glycine betaine. […] Therefore much of the toxicity of 6-ACA is likely due to the osmotic stress. However, it should be noted that […] is similar to the amino acid lysine and could have a greater toxic effect in the cell cytoplasm vs. outside the cell.

E. coli [3] = experiment: Ethanol production (metabolic activity) of E. coli cultures exposed to 6-ACA; format: cell-based, Escherichia coli; conditions: resuspended cultures, overnight growth
Experimental: Midlog or early stationary cells were spun down and resuspended in fresh M9-Glucose medium with various concentrations of 6-ACA. After overnight growth, cultures were measured for growth by measuring OD600 and metabolic activity assayed by ethanol production.
(§1) E. coli was assayed for tolerance, metabolic activity and growth during exposure to various concentrations of 6-aminocaproate (6-ACA). Aerobically, cultures were able to grow media with up to 10% 6-ACA, while anaerobic cultures could grow in media with approximately 6% 6-ACA (FIG. 15). Because the pathway for producing 6-ACA could require anaerobic conditions, all other further testing was performed under anaerobic conditions. To assay tolerance, cultures were grown anaerobically to mid-log(0.3 OD) and early stationary phase (0.6 OD), the cells were spun down and resuspended in medium containing various concentrations of 6-ACA. The cultures were grown in capped microfuge tubes, grown overnight and the ODs of the cultures were assayed (FIG. 16). Under these conditions, cultures were able to grow (double at least 1 time) in up to 10% 6-ACA. The additional tolerance could have been from the additional glucose from resuspending the cultures in fresh M9-glucose medium or from limited oxygen that was present in the capped microfuge tube. […]

E. coli [4] = experiment: Tolerance of E. coli cells resuspended in medium with various concentrations of 6-ACA (OD after overnight growth); format: cell-based, Escherichia coli; conditions: cells grown anaerobically to mid-log (0.3 OD) and early stationary phase (0.6 OD), resuspended in fresh M9-glucose medium, capped microfuge tubes
Experimental: Midlog (OD600=0.3, lower dashed line) or early stationary (OD600=0.6, upper dashed line) cells were spun down and resuspended in fresh M9-Glucose medium with various concentrations of 6-ACA. After overnight growth, cultures were measured for growth by measuring OD600.
as §1

E. coli [5] = experiment: Growth of E. coli in media containing various concentrations of 6-ACA; format: cell-based, Escherichia coli
Experimental: E. coli was inoculated into media and grown in either aerobic (left and right bars) or anaerobic (middle bars) conditions. The cultures were grown for 48 hrs during the first trial and 30 hrs for a second trial under aerobic conditions (right bars).
as §1

[6] = In vitro thiolase reactions with purified His-tagged thiolases, LC/MS analysis; format: biochemical; conditions: for Condensation of succinyl-CoA and acetyl-CoA into β-ketoadipyl-CoA: 0.5 μM purified thiolase, succinyl-CoA:acetyl-CoA 2:1, 30° C., 30 minutes, LC/MS; for Activities in the oxoadipyl-CoA forming direction: as summarised in Example XXVI
Experimental: Succinyl-CoA and acetyl-CoA were added to His-tagged, purified thiolases at a ratio of 2:1 (succinyl-CoA:acetyl-CoA). Reactions were analyzed by LC/MS and quantified by comparison to a standard for acetoacetyl-CoA or peak area determined for 3-oxoadipyl-CoA (β-ketoadipyl-CoA).
For example, the gene products encoded by pcaF in Pseudomonas strain B13 (Kaschabek et al., J. Bacteriol, 184(1): 207-15 (2002)), phaD in Pseudomonas putida U (Olivera et al., Proc Nall Acad Sci USA, 95(11), 6419-24 (1998)), paaE in Pseudomonas fluorescens ST (Di Gennaro et al., Arch Microbiol, 188(2), 117-25 (2007)), and paaJ from E. coli (Nogales et al., Microbiology, 153(Pt 2), 357-65 (2007)) catalyze the conversion of 3-oxoadipyl-CoA into succinyl-CoA and acetyl-CoA during the degradation of aromatic compounds such as phenylacetate or styrene.
The genes were expressed in E. coli and the proteins purified using Ni-NTA spin columns and quantified. To assay enzyme activity in vitro, a […] CoA:DTNB (Ellman's reagent or 5,5′-dithiobis-(2-nitrobenzoic acid)) mixture was prepared. The mixture consisted of 10 mM succinyl-CoA, 5 mM acetyl-CoA, 30 mM DTNB in 100 mM Tris buffer, pH 7.4. […] of the CoA:DTNB mixture was added to 0.5 μM purified thiolase enzyme in 100 mM Tris buffer, pH 7.8 in a final volume of 50 μL. The reaction was incubated at 30° C. for 30 minutes, then quenched with 2.5 μL 10% formic acid and samples frozen at −20° C. until ready for analysis by LC/MS. Because many thiolases can condense two acetyl-CoA molecules into acetoaceytl-CoA, production of acetoacetyl-CoA was examined. […] These were fadAx from Pseudomonas putida, thiA from Clostridium acetobutylicum and thiB also from Clostridium acetobutylicum. […] There was excellent specificity between the thiolases.

Chain of Lysine decarboxylase (EC 4.1.1.18) (P0A9H3 whole entry): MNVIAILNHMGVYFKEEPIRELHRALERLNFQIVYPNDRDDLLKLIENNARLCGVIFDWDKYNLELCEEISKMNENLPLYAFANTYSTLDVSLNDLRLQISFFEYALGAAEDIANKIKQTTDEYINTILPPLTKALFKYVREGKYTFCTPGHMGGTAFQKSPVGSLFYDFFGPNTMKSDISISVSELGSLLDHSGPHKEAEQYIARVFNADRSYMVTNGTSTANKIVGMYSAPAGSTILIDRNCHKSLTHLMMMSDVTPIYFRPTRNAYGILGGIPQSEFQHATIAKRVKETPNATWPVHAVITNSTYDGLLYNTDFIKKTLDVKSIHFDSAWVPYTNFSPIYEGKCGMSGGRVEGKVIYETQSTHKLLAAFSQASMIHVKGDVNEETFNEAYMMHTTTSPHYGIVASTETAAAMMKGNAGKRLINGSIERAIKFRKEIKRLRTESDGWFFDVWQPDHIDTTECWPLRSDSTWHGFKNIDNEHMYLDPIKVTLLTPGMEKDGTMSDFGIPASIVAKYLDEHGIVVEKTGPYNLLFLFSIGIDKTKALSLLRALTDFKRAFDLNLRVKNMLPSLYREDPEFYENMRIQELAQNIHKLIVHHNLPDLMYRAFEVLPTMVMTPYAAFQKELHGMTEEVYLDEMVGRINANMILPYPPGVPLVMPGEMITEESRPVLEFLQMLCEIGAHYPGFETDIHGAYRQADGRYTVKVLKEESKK

| Molecule | Inhibition of lysine decarboxylase [1] | Condensation of succinyl-CoA and acetyl-CoA into β-ketoadipyl-CoA [6] | Activities in the oxoadipyl-CoA forming direction [6] | also measured |
| --- | --- | --- | --- | --- |
| NC(CCCCC(=O)O)C(=O)O (stereo not drawn) [2-Aminopimelate] | competitive inhibitors |  |  |  |
| NCCCCCC(=O)O [6-ACA, 6-aminocaproic acid] | competitive inhibitors |  |  | 6-ACA concentration in medium allowing anaerobic growth (E. coli [2]): 4-6%; Ethanol production (metabolic activity) in the presence of 6-ACA (E. coli [3]): closely tracked with OD; 6-ACA concentration in which cultures were able to grow (double at least 1 time) (E. coli [4]): up to 10%; 6-ACA concentration in media in which cultures were able to grow (E. coli [5]; aerobic): up to 10%; 6-ACA concentration in media in which cultures could grow (E. coli [5]; anaerobic): approximately 6% |
| pcaF from Pseudomonas aeruginosa PAO1: β-ketothiolase pcaF from Pseudomonas aeruginosa PAO1 (protein, UniProt Q9I6R0 1-401, looked up) Beta-ketoadipyl-CoA thiolase: MSREVFICDAVRTPIGRFGGSLSAVRADDLAAVPLKALVERNPGVDWSALDEVFLGCANQAGEDNRNVARMALLLAGLPESVPGVTLNRLCASGMDAIGTAFRAIACGEMELAIAGGVESMSRAPYVMGKADSAFGRGQKIEDTTIGWRFVNPLMKEQYGIDPMPQTADNVADDYRVSRADQDAFALRSQQRAGRAQEAGFFAEEIVPVTIRGRKGDTLVEHDEHPRPDTTLEALARLKPVNGPEKTVTAGNASGVNDGAAALVLASAEAVEKHGLTPRARVLGMASAGVAPRIMGIGPVPAVRKLLRRLDLAIDAFDVIELNEAFASQGLACLRELGVADDSEKVNPNGGAIALGHPLGMSGARLVLTALHQLEKSGGRRGLATMCVGVGQGLALAIERV |  | demonstrated the desired activity | significant and selective activities |  |
| paaJ: β-ketothiolase paaJ from Escherichia coli, His-tagged, purified (protein, UniProt P0C7L2 1-401, looked up, His-tag, β-ketothiolase paaJ from Escherichia coli, His-tagged, purified) 3-oxoadipyl-CoA/3-oxo-5,6-dehy …: MREAFICDGIRTPIGRYGGALSSVRADDLAAIPLRELLVRNPRLDAECIDDVILGCANQAGEDNRNVARMATLLAGLPQSVSGTTINRLCGSGLDALGFAARAIKAGDGDLLIAGGVESMSRAPFVMGKAASAFSRQAEMFDTTIGWRFVNPLMAQQFGTDSMPETAENVAELLKISREDQDSFALRSQQRTAKAQSSGILAEEIVPVVLKNKKGVVTEIQHDEHLRPETTLEQLRGLKAPFRANGVITAGNASGVNDGAAALIIASEQMAAAQGLTPRARIVAMATAGVEPRLMGLGPVPATRRVLERAGLSIHDMDVIELNEAFAAQALGVLRELGLPDDAPHVNPNGGAIALGHPLGMSGARLALAASHELHRRNGRYALCTMCIGVGQGIAMILERV |  | demonstrated the desired activity | significant and selective activities |  |
| pcaF from Pseudomonas putida KT2440: β-ketothiolase pcaF from Pseudomonas putida KT2440 (protein, UniProt Q51956 1-400, looked up) Beta-ketoadipyl-CoA thiolase: MRDVFICDAIRTPIGRFGGALAGVRADDLAAVPLKALIEPNPAVQWDQVDEVFFGCANQAGEDNRNVARMALLLAGLPESIPGVTLNRLCASGMDAIGTAFRAIASGEMELAIAGGVESMSRAPFVMGKAESGYSRNMKLEDTTIGWRFINPLMKSQYGVDSMPETADNVADDYQVSRADQDAFALRSQQKAAAAQAAGFFAEEIVPVRIAHKKGETIVERDEHLRPETTLEALTKLKPVNGPDKTVTAGNASGVNDGAAALILASAEAVKKHGLTPRARVLGMASGGVAPRVMGIGPVPAVRKLTERLGVAVSDFDVIELNEAFASQGLAVLRELGVADDAPQVNPNGGAIALGHPLGMSGARLVLTALHQLEKSGGRKGLATMCVGVGQGLALAIERV |  | demonstrated the desired activity |  |  |
